Patent US20230364230A1, “COMBINATION THERAPY FOR CANCER” (ENGMAB SÀRL, priority 2020, published 2023)

How the values were obtained:
H929 target cells [1] = assay: Protein 1 induced ADCC after pretreatment of PBMCs with different concentrations (H929 lysis, flow cytometry); assay type: cell-based, human; details: for % lysis with Protein 1: 0.1 nM Protein 1, % change from DMSO control + Protein 1; for % lysis without Protein 1: % change from DMSO control
Description: PBMCs from two healthy donors were pre-incubated for 24 hours or 48 hours in the presence of CC-92480 or a DMSO control. CC-92480 was added at 0.001 nM, 0.01 nM, 0.1 nM, 1 nM and 10 nM concentrations. After pretreatment, PBMCs were incubated for an additional 18 hours or overnight in the presence of H929 target cells with or without the addition of 0.1 nM of Protein 1. Samples were analyzed via flow cytometry for H929 depletion. Specific lysis was calculated as following: (1−((test sample H929 count)/(H929 count in DMSO control without Protein 1)))*100. PBMCs from two healthy donors were pre-incubated for 24 hours or 48 hours in the presence of CC-220 or a DMSO control. CC-220 was added at 0.01 nM, 0.1 nM, 1 nM, 10 nM and 100 nM concentrations. After pretreatment, PBMCs were incubated for an additional 18 hours or overnight in the presence of H929 target cells with or without the addition of 0.1 nM of Protein 1. Samples were analyzed via flow cytometry for H929 depletion. Specific lysis was calculated as following: (1−((test sample H929 count)/(H929 count in DMSO control without Protein 1)))*100. […] Data is normalized to % change of sample from the control treated DMSO sample+/−Protein 1. For % lysis without Protein 1, the control sample is PBMC pretreated with DMSO+H929. For % lysis with Protein 1, the control sample is PBMC pretreated with DMSO+H929+0.1 nM of Protein 1.

H929 target cells [2] = assay: Protein 1 induced ADCC after pretreatment of PBMCs with single concentration, Protein 1 dose range; assay type: cell-based, human; details: PBMCs pretreated 24 or 48 hours with 0.1 nM CC-92480 or 1 nM CC-220; Protein 1 0 nM to 10 nM
Description: PBMCs from a healthy donor were preincubated for 24 hours or 48 hours in the presence of CC-92480 at 0.1 nM or CC-220 (iberdomide) at 1 nM or a DMSO control. After pretreatment, PBMCs were incubated for an additional 18 hours or overnight in the presence of H929 target cells with concentrations of Protein 1 ranging from 0 nM to 10 nM. Samples were analyzed via flow cytometry for H929 depletion. Specific lysis was calculated as following: (1−((test sample H929 count)/(H929 count in DMSO control without Protein 1)))*100. PBMCs were pretreated 0.1 nM of CC-92480 or 1 nM of CC-220 or DMSO control for either 24 hours (FIG. 13A) or 48 hours (FIG. 13B). After pretreatment, PBMCs were cultured with H929 target cells and 0 nM to 10 nM of Protein 1 overnight. H929 lysis was determined via flow cytometry. Pretreatment of PBMCs with single concentration of CC-92480 or CC-220 enhanced Protein 1 induced ADCC.

H929 target cells [3] = assay: Protein 1 induced ADCC after pretreatment of both PBMC and H929 target cells; assay type: cell-based, human
Description: PBMCs from a healthy donor were pre-incubated for 48 hours in the presence of CC-92480 or CC-220 (iberdomide) or a DMSO control. Additionally, H929 cells were also pre-incubated separately from the PBMCs for 48 hours with CELMoD. For CC-92480, PBMC and H929 were incubated in 0.1 nM, 1 nM or 10 nM concentrations. For CC-220, cells were incubated in 1 nM or 10 nM concentrations. Cells were also pre-incubated in with a DMSO control. After pretreatment, PBMC and H929 were combined based on their matched treatments and incubated for an additional 18 hours or overnight in the presence of a dose range of Protein 1, 0 nM to 10 nM. Samples were analyzed via flow cytometry for H929 depletion. Specific lysis was calculated as following: (1−((test sample H929 count)/(H929 count in DMSO control without PBMC and without Protein 1)))*100. PBMC and H929 cells were pretreated separately with varying doses of CC-92480 (FIG. 14A) or CC-220 (FIG. 14B) or a DMSO control for 48 hours. After pretreatment, PBMCs and H929 target cells were combined and co-cultured overnight with a dose range of Protein 1 at 0 nM to 10 nM. H929 cell depletion was analyzed by flow cytometry. […] Pretreatment of both PBMC and H929 target cells with CC-92480 or CC-220 (iberdomide) enhanced Protein 1 induced ADCC.

NK cells = assay: NK cell proliferation in DLBCL patient PBMCs stimulated with anti-CD3; assay type: cell-based, human; details: PBMCs treated 1 hour prior to anti-CD3 stimulation for 3 days
Description: Percentage of NK cells was analyzed via flow cytometry gated on live CD3-CD19-CD14-CD56+CD16+NK cells. Cytokinic NK cells were […]16^low and cytotoxic NK cells were CD56^lowCD16^high populations.

NKG2D+ NK cells = assay: Surface expression of NKG2D on NK cells in DLBCL patient PBMC; assay type: cell-based, human; details: PBMCs treated 1 hour prior to anti-CD3 stimulation for 3 days
Description: Surface expression of NKG2D was measured by flow cytometry gated on live CD3-CD19-CD14-CD56+CD16+NK cells.

[4] = system: interferon stimulated genes; assay: Induction of interferon stimulated genes in DLBCL cells; assay type: cell-based; details: correlated with degradation of Aiolos and Ikaros
Description: (§1) Karpas 422, WSU-DLCL2, U2932 and TMD8 cells were treated with avadomide at a concentration of 0.1, 1, or 10 μM. The expression of Aiolos, Ikaros, […] and IRF4 were measured by western blot.
The induction of interferon stimulated genes was correlated with the degradation of Aiolos and Ikaros. […] Such direct regulation was shown using Chromatin Immunoprecipitation sequencing (ChIP-seq) analysis and generic methods, see, e.g., Hagner et al, Blood, 126(6):779-789 (2015), which is incorporated by reference in its entirety.

TMD8 cells = assay: HLA-DR and CD86 expression in TMD8 cells by flow cytometry; assay type: cell-based; details: 48 hours
Description: DLBCL cell line TMD8 was treated with avadomide for 48 hours. […] The result corroborated the ChIP-seq analysis (FIG. 10B).

Aiolos [5] = molecular target: T1, Aiolos (Homo sapiens, UniProt Q96SW2+Q9UKT9); assay: Aiolos expression by western blot in DLBCL cells; assay type: cell-based; set-up: endogenous in cells; host or cells: Karpas 422, WSU-DLCL2, U2932 and TMD8 DLBCL cells; details: Karpas 422, WSU-DLCL2, U2932 and TMD8 cells, 0.1, 1, or 10 μM
Description: as §1

Ikaros [6] = molecular target: T2, Ikaros (Homo sapiens, UniProt Q13422+Q96SW2); assay: Ikaros expression by western blot in DLBCL cells; assay type: cell-based; set-up: endogenous in cells; host or cells: Karpas 422, WSU-DLCL2, U2932 and TMD8 DLBCL cells; details: Karpas 422, WSU-DLCL2, U2932 and TMD8 cells, 0.1, 1, or 10 μM
Description: as §1

Aiolos [7] = molecular target: T1, Aiolos; assay: Degradation of Aiolos in primary NK cells (intracellular staining, flow cytometry); assay type: cell-based; set-up: endogenous in cells; host or cells: primary human NK cells gated from healthy-donor PBMCs; details: PBMCs from healthy donors (n=7), dose titrations, 5 hours
Description: (§2) Intracellular staining of Aiolos and Ikaros in primary human NK cells was performed by flow cytometry gating on live, CD3-CD4-CD8-CD56+CD16+NK cell populations.

Ikaros [8] = molecular target: T2, Ikaros; assay: Degradation of Ikaros in primary NK cells (intracellular staining, flow cytometry); assay type: cell-based; set-up: endogenous in cells; host or cells: primary human NK cells gated from healthy-donor PBMCs; details: PBMCs from healthy donors (n=7), dose titrations, 5 hours
Description: as §2

[9] = pretreatment 0.1 nM, 24 hour, donor 1
[10] = pretreatment 0.1 nM, 24 hour, donor 2
[11] = pretreatment 0.1 nM, 48 hour, donor 1
[12] = pretreatment 0.1 nM, 48 hour, donor 2
[13] = pretreatment 10 nM, 24 hour, donor 1
[14] = pretreatment 10 nM, 24 hour, donor 2
[15] = pretreatment 10 nM, 48 hour, donor 1
[16] = pretreatment 10 nM, 48 hour, donor 2

T2 sequence (Q13422 whole entry): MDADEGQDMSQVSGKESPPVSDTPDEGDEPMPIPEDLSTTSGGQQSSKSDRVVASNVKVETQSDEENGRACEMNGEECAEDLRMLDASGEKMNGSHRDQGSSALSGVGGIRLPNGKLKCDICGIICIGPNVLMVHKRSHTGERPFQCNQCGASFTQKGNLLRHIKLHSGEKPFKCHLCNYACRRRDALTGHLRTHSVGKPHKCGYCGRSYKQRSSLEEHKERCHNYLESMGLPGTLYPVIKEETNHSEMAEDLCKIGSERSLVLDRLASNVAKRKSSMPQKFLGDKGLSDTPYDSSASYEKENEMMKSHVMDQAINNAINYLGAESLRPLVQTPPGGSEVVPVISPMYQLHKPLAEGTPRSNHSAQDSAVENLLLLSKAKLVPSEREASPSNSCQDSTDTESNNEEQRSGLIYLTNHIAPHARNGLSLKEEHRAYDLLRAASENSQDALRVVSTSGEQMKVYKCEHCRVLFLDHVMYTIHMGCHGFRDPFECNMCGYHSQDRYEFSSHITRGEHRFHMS
T2 sequence (Q96SW2 whole entry): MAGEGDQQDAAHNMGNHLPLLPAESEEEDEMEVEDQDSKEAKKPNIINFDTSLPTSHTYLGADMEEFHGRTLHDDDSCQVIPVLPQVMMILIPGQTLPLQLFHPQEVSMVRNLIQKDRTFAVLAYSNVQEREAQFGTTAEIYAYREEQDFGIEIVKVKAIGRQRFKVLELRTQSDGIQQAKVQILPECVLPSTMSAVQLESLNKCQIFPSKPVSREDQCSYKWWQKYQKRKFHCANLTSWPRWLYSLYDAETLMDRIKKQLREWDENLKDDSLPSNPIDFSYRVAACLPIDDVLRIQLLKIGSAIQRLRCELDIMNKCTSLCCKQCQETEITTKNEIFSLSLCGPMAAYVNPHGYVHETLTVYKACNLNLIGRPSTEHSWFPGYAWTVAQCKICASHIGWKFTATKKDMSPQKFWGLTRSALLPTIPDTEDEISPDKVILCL
T2 sequence (Q16531 whole entry partner): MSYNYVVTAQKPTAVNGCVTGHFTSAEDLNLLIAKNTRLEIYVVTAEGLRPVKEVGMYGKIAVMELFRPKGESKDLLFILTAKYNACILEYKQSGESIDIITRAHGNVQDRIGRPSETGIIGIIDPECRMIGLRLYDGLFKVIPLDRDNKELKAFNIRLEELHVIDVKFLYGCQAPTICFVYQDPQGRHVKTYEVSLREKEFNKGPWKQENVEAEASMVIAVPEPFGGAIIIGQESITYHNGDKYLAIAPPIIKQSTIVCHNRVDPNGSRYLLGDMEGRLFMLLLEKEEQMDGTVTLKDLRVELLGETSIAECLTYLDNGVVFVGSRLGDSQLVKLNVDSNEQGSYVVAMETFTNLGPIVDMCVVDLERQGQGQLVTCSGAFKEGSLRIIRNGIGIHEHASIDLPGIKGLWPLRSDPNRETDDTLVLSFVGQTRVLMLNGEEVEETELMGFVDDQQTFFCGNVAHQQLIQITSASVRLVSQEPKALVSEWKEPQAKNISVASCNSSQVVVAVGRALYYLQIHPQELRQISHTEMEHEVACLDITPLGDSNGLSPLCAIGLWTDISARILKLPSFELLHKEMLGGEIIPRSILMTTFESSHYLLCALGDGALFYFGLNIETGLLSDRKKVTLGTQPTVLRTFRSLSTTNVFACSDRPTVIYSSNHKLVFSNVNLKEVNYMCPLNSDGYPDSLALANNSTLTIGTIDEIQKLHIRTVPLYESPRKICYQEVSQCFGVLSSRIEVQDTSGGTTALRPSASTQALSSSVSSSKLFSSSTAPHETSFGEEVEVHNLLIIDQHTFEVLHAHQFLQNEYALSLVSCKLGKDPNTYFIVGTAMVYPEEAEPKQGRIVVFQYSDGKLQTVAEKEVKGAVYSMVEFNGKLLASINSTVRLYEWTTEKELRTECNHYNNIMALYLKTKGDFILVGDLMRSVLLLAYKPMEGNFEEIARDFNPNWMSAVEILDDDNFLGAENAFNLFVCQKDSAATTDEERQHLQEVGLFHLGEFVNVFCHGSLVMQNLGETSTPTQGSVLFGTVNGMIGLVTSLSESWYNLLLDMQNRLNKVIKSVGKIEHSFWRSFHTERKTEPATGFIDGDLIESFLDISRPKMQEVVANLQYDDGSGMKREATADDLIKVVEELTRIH
T1 sequence (Q9UKT9 whole entry): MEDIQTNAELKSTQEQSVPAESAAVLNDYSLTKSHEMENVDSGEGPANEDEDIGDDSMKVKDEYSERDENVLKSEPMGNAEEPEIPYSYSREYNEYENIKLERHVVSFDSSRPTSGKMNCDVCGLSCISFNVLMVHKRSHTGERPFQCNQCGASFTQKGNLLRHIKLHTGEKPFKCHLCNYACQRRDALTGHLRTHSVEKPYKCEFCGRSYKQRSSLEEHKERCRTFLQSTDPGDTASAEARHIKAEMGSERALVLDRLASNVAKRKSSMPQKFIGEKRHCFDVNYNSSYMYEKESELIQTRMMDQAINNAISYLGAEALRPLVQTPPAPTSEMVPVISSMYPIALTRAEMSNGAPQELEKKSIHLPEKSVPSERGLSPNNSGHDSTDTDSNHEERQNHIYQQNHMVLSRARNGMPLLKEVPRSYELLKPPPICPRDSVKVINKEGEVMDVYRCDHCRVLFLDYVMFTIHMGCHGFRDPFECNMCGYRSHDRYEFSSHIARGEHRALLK
T1 sequence (Q96SW2 whole entry): as the sequence (Q96SW2 whole entry) above
T1 sequence (Q16531 whole entry partner): as the sequence (Q16531 whole entry partner) above

SMILES: N#Cc1ccc(N2CCN(Cc3ccc(COc4cccc5c4CN([C@H]4CCC(=O)NC4=O)C5=O)cc3)CC2)c(F)c1 [CC-92480, (S)-4-(4-(4-(((2-(2,6-dioxopiperidin-3-yl)-1-oxoisoindolin-4-yl)oxy)methyl)benzyl)piperazin-1-yl)-3-fluorobenzonitrile]
- Protein 1 induced ADCC (H929 lysis) (H929 target cells [1]; PBMCs pretreated 24 or 48 hours at different concentrations, 0.1 nM Protein 1 overnight): enhanced
- % lysis difference with Protein 1 (H929 target cells [1]; [9]): 48.85%
- % lysis with Protein 1 (H929 target cells [1]; [9]): 58.27%
- % lysis without Protein 1 (H929 target cells [1]; [9]): 9.42%
- % lysis difference with Protein 1 (H929 target cells [1]; [10]): 76.64%
- % lysis with Protein 1 (H929 target cells [1]; [10]): 67.82%
- % lysis without Protein 1 (H929 target cells [1]; [10]): −8.82%
- % lysis difference with Protein 1 (H929 target cells [1]; [11]): 79.40%
- % lysis with Protein 1 (H929 target cells [1]; [11]): 64.54%
- % lysis without Protein 1 (H929 target cells [1]; [11]): −14.86%
- % lysis difference with Protein 1 (H929 target cells [1]; [12]): 36.79%
- % lysis with Protein 1 (H929 target cells [1]; [12]): 82.02%
- % lysis without Protein 1 (H929 target cells [1]; [12]): 45.23%
- % lysis difference with Protein 1 (H929 target cells [1]; [13]): 27.75%
- % lysis with Protein 1 (H929 target cells [1]; [13]): 28.79%
- % lysis without Protein 1 (H929 target cells [1]; [13]): 1.04%
- % lysis difference with Protein 1 (H929 target cells [1]; [14]): −33.32%
- % lysis with Protein 1 (H929 target cells [1]; [14]): −43.51%
- % lysis without Protein 1 (H929 target cells [1]; [14]): −10.19%
- % lysis difference with Protein 1 (H929 target cells [1]; [15]): 72.35%
- % lysis with Protein 1 (H929 target cells [1]; [15]): 42.46%
- % lysis without Protein 1 (H929 target cells [1]; [15]): −29.89%
- % lysis difference with Protein 1 (H929 target cells [1]; [16]): 52.72%
- % lysis with Protein 1 (H929 target cells [1]; [16]): 59.57%
- % lysis without Protein 1 (H929 target cells [1]; [16]): 6.85%
- Protein 1 induced ADCC (H929 lysis) (H929 target cells [2]): enhanced
- susceptibility of H929 target cells to lysis (H929 target cells [3]; H929 target cells pretreated 48 hours, most notably at Protein 1 0.01-0.1 nM): more susceptible to lysis
- Protein 1 induced ADCC (H929 cell depletion) (H929 target cells [3]; PBMC and H929 pretreated separately 48 hours, Protein 1 0 nM to 10 nM): enhanced

SMILES: Cc1nc2cccc(N)c2c(=O)n1C1CCC(=O)NC1=O (centres unmarked) [avadomide, 3-(5-amino-2-methyl-4-oxoquinazolin-3(4H)-yl)piperidine-2,6-dione]
- NK cell proliferation in DLBCL patient samples (NK cells): dose dependently enhanced
- NKG2D+ NK cells in DLBCL patient PBMC (NKG2D+ NK cells): significantly expanded
- induction of interferon stimulated genes in DLBCL cells [4]: induction
- expression of CD86 (TMD8 cells): enhanced expression
- expression of HLA-DR (TMD8 cells): enhanced expression
- degradation of Aiolos in DLBCL cells (Aiolos [5]): mediated degradation
- degradation of Ikaros in DLBCL cells (Ikaros [6]): mediated degradation
- degradation of Aiolos in primary NK cells (Aiolos [7]): mediates degradation
- degradation of Ikaros in primary NK cells (Ikaros [8]): mediates degradation

SMILES: Nc1cccc2c1CN(C1CCC(=O)NC1=O)C2=O (centres unmarked) [lenalidomide, 3-(7-amino-3-oxo-1H-isoindol-2-yl)piperidine-2,6-dione]
- NKG2D+ NK cells in DLBCL patient PBMC (NKG2D+ NK cells): significantly expanded
